Values quoted from earlier work, collected in US9364565B2, “Medical device with coating for capturing genetically-altered cells and methods of using same” (OrbusNeich Medical, Inc., priority 2000, dated 2016).

How the values were obtained:
endothelial cells = settings: 100 μg
VEGFR-2 = VEGFR-2 (Homo sapiens, UniProt P35968)
Chain of VEGFR-2 (P35968 20-1356): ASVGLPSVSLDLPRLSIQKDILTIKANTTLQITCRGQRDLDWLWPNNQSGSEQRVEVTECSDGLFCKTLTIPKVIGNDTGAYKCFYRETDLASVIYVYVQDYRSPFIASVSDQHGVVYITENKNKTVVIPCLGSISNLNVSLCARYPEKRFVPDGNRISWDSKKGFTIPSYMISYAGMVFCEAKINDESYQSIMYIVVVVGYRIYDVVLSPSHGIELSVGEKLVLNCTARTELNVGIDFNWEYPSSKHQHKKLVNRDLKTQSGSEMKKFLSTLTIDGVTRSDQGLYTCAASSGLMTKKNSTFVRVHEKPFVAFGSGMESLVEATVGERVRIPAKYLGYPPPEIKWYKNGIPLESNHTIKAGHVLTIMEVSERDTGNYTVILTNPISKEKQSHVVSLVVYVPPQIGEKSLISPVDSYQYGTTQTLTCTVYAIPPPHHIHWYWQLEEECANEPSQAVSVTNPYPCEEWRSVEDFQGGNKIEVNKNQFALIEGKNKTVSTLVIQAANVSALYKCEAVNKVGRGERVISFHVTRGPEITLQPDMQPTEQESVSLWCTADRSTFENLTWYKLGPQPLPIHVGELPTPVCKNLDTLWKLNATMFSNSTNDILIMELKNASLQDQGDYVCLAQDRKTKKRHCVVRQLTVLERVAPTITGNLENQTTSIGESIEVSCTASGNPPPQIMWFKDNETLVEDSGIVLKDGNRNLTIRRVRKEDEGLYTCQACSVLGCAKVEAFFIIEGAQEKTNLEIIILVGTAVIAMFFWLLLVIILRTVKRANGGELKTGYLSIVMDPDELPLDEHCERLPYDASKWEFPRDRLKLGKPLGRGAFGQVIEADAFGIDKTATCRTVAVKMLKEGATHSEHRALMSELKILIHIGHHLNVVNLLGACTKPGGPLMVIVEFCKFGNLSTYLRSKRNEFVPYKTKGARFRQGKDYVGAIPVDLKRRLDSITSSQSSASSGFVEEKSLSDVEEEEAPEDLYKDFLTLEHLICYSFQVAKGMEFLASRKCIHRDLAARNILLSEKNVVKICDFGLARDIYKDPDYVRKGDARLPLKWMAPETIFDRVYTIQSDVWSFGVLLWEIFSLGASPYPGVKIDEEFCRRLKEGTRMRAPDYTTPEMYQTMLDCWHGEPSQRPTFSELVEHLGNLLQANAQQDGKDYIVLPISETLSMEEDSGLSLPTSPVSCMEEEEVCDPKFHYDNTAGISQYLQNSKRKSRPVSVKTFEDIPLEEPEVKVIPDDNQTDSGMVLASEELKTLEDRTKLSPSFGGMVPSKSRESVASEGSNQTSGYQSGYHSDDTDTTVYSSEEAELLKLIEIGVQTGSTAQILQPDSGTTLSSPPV

Row | Molecule | adherence of endothelial cells on a medical device (endothelial cells) | binding to VEGFR-2 (VEGFR-2)
1 | VEGF | stimulate the adherence of endothelial cells on a medical device | –
2 | Cc1[nH]c(/C=C2\C(=O)Nc3ccccc32)c(C)c1CCC(=O)O [SU6668] | – | bind to VEGFR-2
